Counter-ions that a name gives are not always drawn.

System in the first data set: not given
Test: not given
Conditions: not given
The term melting point denotes the temperature, or range, at which the solid turns liquid. On to `NCC1CCCc2cc(NS(=O)(=O)c3ccccc3)ccc21` (stereo not shown) [Compound 2, N-(5-Aminomethyl-5,6,7,8-tetrahydro-naphthalen-2-yl)-benzenesulfonamide], for which the melting point is 164 to 165 °C.

In the case of `O=CNCC1CCCc2cc(NS(=O)(=O)c3cccc(F)c3)ccc21` (stereo not shown) [Compound 7, 3-Fluoro-N-(5-formylaminomethyl-5,6,7,8-tetrahydro-naphthalen-2-yl)-benzenesulfonamide], the melting point fell in the range of 143 to 144 °C.

Take `CNCC1CCCc2cc(NS(=O)(=O)c3cccc(F)c3)ccc21` (stereo not shown) (as salt: oxalate) [Compound 5, 3-Fluoro-N-(5-methylaminomethyl-5,6,7,8-tetrahydro-naphthalen-2-yl)-benzenesulfonamide]: the melting point fell in the range of 135 to 136 °C.

The compound `CN(c1ccc2c(c1)CCCC2CN)S(=O)(=O)c1cccc(F)c1` (stereo not shown) (as salt: oxalate) [Compound 9, N-(5-Aminomethyl-5,6,7,8-tetrahydro-naphthalen-2-yl)-3-fluoro-N-methyl-benzenesulfonamide] gave a melting point of 176 to 177 °C.

Take `CC(=O)NCC1CCCc2cc(NS(=O)(=O)c3cccc(F)c3)ccc21` (stereo not shown) [Compound 8, N-[6-(3-Fluoro-benzenesulfonylamino)-1,2,3,4-tetrahydro-naphthalen-1-ylmethyl]-acetamide]: the melting point was in the range of 136 to 137 °C.

In turn, `NC(=O)NCC1CCCc2cc(NS(=O)(=O)c3cccc(F)c3)ccc21` (stereo not shown) [Compound 6, 3-Fluoro-N-(5-ureidomethyl-5,6,7,8-tetrahydro-naphthalen-2-yl)-benzenesulfonamide] displayed a melting point of 162 to 163 °C.

The target of the next data set is T1, recombinant human 5-HT6 receptor (Homo sapiens, UniProt P50406).
T1 construct: expressed in transfected cells; membranes
T1 sequence (P50406 whole entry): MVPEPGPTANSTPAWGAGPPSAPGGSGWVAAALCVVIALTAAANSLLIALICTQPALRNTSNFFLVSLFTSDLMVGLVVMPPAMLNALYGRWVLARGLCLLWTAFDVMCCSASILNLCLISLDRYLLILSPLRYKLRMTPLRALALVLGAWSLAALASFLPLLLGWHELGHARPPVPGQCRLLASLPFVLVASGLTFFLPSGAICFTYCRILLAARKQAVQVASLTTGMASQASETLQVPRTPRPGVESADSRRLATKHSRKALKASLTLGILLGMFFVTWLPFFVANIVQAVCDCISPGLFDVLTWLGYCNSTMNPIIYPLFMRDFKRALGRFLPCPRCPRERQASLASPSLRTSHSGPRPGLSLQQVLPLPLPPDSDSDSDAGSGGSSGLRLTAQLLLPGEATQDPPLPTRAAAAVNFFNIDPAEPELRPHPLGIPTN
The data set is described as follows: Radioligand binding, [3H]LSD competition in membranes of HEK293 cells expressing 5-HT6. The note with it: [3H]LSD displacement, pH 7.4, 37° C., read-out: pKi for 5-HT6 (converted). The procedure:
The binding activity of compounds of this invention in vitro was determined as follows. Duplicate determinations of 5-HT6 ligand affinity were made by competing for binding of [^3H]LSD in cell membranes derived from HEK293 cells stably expressing recombinant human 5-HT6 receptor. Duplicate determinations of 5-HT2A ligand affinity were made by competing for binding of [^3H]Ketanserin (3-(2-(4-(4-fluorobenzoyl)piperidinol)ethyl)-2,4(1H,3H)-quinazolinedione) in cell membranes derived from CHO-K1 cells stably expressing recombinant human 5-HT2A receptor. Membranes were prepared from HEK 293 cell lines by the method described by Monsma et al., Molecular Pharmacology, Vol. 43 pp. 320-327 (1993), and from CHO-K1 cell lines as described by Bonhaus et al., Br J Pharmacol. June; 115(4):622-8 (1995).
For estimation of affinity at the 5-HT6 receptor, all determinations were made in assay buffer containing 50 mM Tris-HCl, 10 mM MgSO4, 0.5 mM EDTA, 1 mM ascorbic acid, pH 7.4 at 37° C., in a 250 microliter reaction volume. […]
Assay tubes containing [^3H] […] LSD or [^3H]Ketanserin were determined as radioactive counts per minute using Packard TopCount.
Displacement of [^3H]LSD or [^3H]Ketanserin from the binding sites was quantified by fitting concentration-binding data to a 4-parameter logistic equation: […]
For `CNCC1CCCc2cc(NS(=O)(=O)c3ccccc3)ccc21` (stereo not shown) [N-(5-Methylaminomethyl-5,6,7,8-tetrahydro-naphthalen-2-yl)-benzenesulfonamide], the Ki is about 0.138 nM.

The values above are taken from patent US7531577B2, “Arylsulfonamidyl tetralin derivatives and uses thereof” (Roche Palo Alto LLC, priority 2006, dated 2009).
